Experimental data reported in PubChem BioAssay AID248 (DTP/NCI, 2004).
“And” between values parts separate entries of the source, which are not always exact repeats. Equal entries are not always repeated. Toxic doses and inconclusive results are not listed. Rule as the data show it: active = T/C of 150% or more; inactive = T/C below 125%.

System: L1210 leukemia ip in BDF1 mice, survival T/C
Assay: NCI In Vivo Anticancer Drug Screen. Data for tumor model L1210 Leukemia (intraperitoneal) in B6D2F1 (BDF1) mice
Conditions: endpoint: mean survival time, higher = longer survival
How it was run: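 Antitumor effect is assessed in tumor-bearing animals. Survival in the compound arm is compared with a vehicle-dosed control arm and expressed as their quotient.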

[1] = dose: 100.0 mg/kg/injection, schedule: Q01DX009 (ip), vehicle: saline
[2] = dose: 100.0 mg/kg/injection, schedule: Q04DX003 (ip), vehicle: saline
[3] = dose: 200.0 mg/kg/injection, schedule: Q01DX009 (ip), vehicle: saline
[4] = dose: 200.0 mg/kg/injection, schedule: Q04DX003 (ip), vehicle: saline
[5] = dose: 400.0 mg/kg/injection, schedule: Q01DX009 (ip), vehicle: saline
[6] = dose: 400.0 mg/kg/injection, schedule: Q04DX003 (ip), vehicle: saline
[7] = dose: 100.0 mg/kg/injection, schedule: Q04DX002 (ip), vehicle: saline
[8] = dose: 200.0 mg/kg/injection, schedule: Q04DX002 (ip), vehicle: saline
[9] = dose: 400.0 mg/kg/injection, schedule: Q04DX002 (ip), vehicle: saline
[10] = dose: 50.0 mg/kg/injection, schedule: Q01DX009 (ip), vehicle: saline with Tween-80
[11] = dose: 100.0 mg/kg/injection, schedule: Q01DX009 (ip), vehicle: saline with Tween-80
[12] = dose: 200.0 mg/kg/injection, schedule: Q01DX009 (ip), vehicle: saline with Tween-80
[13] = dose: 50.0 mg/kg/injection, schedule: Q01DX001 (ip), vehicle: Klucel (hydroxypropylcellulose) (HPC)
[14] = dose: 100.0 mg/kg/injection, schedule: Q01DX001 (ip), vehicle: Klucel (hydroxypropylcellulose) (HPC)
[15] = dose: 200.0 mg/kg/injection, schedule: Q01DX001 (ip), vehicle: Klucel (hydroxypropylcellulose) (HPC)

Measured: T/C

NC(=O)C(O)C(Br)(Br)Br (stereo unspecified)
inactive: [1] 94 % of control | [2] 97 % of control | [3] 95 % of control | [4] 93 % of control | [5] 90 % of control | [6] 97 % of control

Nc1nc(CNc2ccccc2)nc(Nc2ccccc2)n1
inactive: dose: 100.0 mg/kg/injection, schedule: Q04DX003 (ip), vehicle: saline with Tween-80 89 % of control | dose: 200.0 mg/kg/injection, schedule: Q04DX003 (ip), vehicle: saline with Tween-80 101 % of control | dose: 400.0 mg/kg/injection, schedule: Q04DX003 (ip), vehicle: saline with Tween-80 89 % of control

O=C1OC(c2ccc(Cl)cc2)=N/C1=C\c1ccc(Cl)c(Cl)c1
inactive: [7] 106 % of control | [8] 92 % of control | [9] 100 % of control

COCBr
inactive: [1] 110 % of control | [2] 103 % of control | [3] 101 % of control | [4] 103 % of control | [6] 94 % of control

CC1(C)CC(=O)c2c(OC(=O)N(CCCl)CCCl)cc(OC(=O)N(CCCl)CCCl)cc2O1
inactive: dose: 25.0 mg/kg/injection, schedule: Q04DX002 (ip), vehicle: alcohol 94 % of control | dose: 50.0 mg/kg/injection, schedule: Q04DX002 (ip), vehicle: alcohol 113 % of control | dose: 100.0 mg/kg/injection, schedule: Q04DX002 (ip), vehicle: alcohol 94 % of control | dose: 200.0 mg/kg/injection, schedule: Q04DX002 (ip), vehicle: alcohol 97 % of control | dose: 400.0 mg/kg/injection, schedule: Q04DX002 (ip), vehicle: alcohol 90 % of control

CCCCCc1c(CCCC)c(=O)[nH]c2ccccc12
inactive: dose: 100.0 mg/kg/injection, schedule: Q01DX001 (ip), vehicle: saline 97 % of control | dose: 200.0 mg/kg/injection, schedule: Q01DX001 (ip), vehicle: saline 98 % of control | dose: 400.0 mg/kg/injection, schedule: Q01DX001 (ip), vehicle: saline 90 % of control

Cc1cn(CCC(N)C(=O)O)c(=O)[nH]c1=O (stereo unspecified)
inactive: [1] 103 % of control | [7] 106 % of control | [3] 117 % of control | [8] 89 % of control | [5] 95 % of control | [9] 113 % of control

Cc1c2ccccc2cc2cccc[n+]12
inactive: dose: 4.0 mg/kg/injection, schedule: Q01DX015 (ip), vehicle: saline 97 % of control | dose: 5.0 mg/kg/injection, schedule: Q01DX001 (ip), vehicle: saline 98 % of control | dose: 8.0 mg/kg/injection, schedule: Q01DX015 (ip), vehicle: saline 97 % of control | dose: 10.0 mg/kg/injection, schedule: Q01DX001 (ip), vehicle: saline 92 % of control | dose: 16.0 mg/kg/injection, schedule: Q01DX015 (ip), vehicle: saline 110 % of control | dose: 20.0 mg/kg/injection, schedule: Q01DX001 (ip), vehicle: saline 107 % of control | dose: 20.0 mg/kg/injection, schedule: Q04DX003 (ip), vehicle: saline 111 % of control | dose: 26.0 mg/kg/injection, schedule: Q04DX003 (ip), vehicle: saline 111 % of control and 118 % of control | dose: 32.0 mg/kg/injection, schedule: Q01DX015 (ip), vehicle: saline 95 % of control | dose: 40.0 mg/kg/injection, schedule: Q01DX001 (ip), vehicle: saline 112 % of control | dose: 40.0 mg/kg/injection, schedule: Q04DX003 (ip), vehicle: saline 116 % of control and 117 % of control | dose: 60.0 mg/kg/injection, schedule: Q04DX003 (ip), vehicle: saline 122 % of control

O=C(OC1(c2ccccc2)CC2CC1c1ccccc12)c1ccc([N+](=O)[O-])cc1 (stereo unspecified)
inactive: dose: 50.0 mg/kg/injection, schedule: Q01DX001 (ip), vehicle: carboxymethylcellulose (CMC) 88 % of control | dose: 100.0 mg/kg/injection, schedule: Q01DX001 (ip), vehicle: carboxymethylcellulose (CMC) 95 % of control | dose: 200.0 mg/kg/injection, schedule: Q01DX001 (ip), vehicle: carboxymethylcellulose (CMC) 95 % of control

Cc1c(NS(=O)(=O)c2ccccc2)c(C)c(NS(=O)(=O)c2ccccc2)c(C)c1NS(=O)(=O)c1ccccc1
inactive: [10] 96 % of control | [11] 96 % of control | [12] 88 % of control

CC(C)(C)OOC(=O)C1(F)CC1(c1ccccc1)c1ccccc1 (stereo unspecified)
inactive: [13] 100 % of control | [14] 100 % of control | [15] 109 % of control

CC1(C)N=C(N)N=C(N)N1c1ccc(C(=O)Nc2ccc(S(=O)(=O)F)cc2)cc1
inactive: dose: 0.8 mg/kg/injection, schedule: Q01DX009 (ip), vehicle: saline 101 % of control | dose: 4.0 mg/kg/injection, schedule: Q01DX009 (ip), vehicle: saline 100 % of control | dose: 20.0 mg/kg/injection, schedule: Q01DX009 (ip), vehicle: saline 95 % of control | [1] 97 % of control | dose: 500.0 mg/kg/injection, schedule: Q01DX009 (ip), vehicle: saline 101 % of control

CN(C)c1ccc(N=C(C#N)C#N)cc1
inactive: dose: 75.0 mg/kg/injection, schedule: Q01DX001 (ip), vehicle: other 89 % of control | dose: 150.0 mg/kg/injection, schedule: Q01DX001 (ip), vehicle: other 95 % of control

CCOc1ccc2c(ccc(C)[n+]2C)c1
inactive: dose: 75.0 mg/kg/injection, schedule: Q01DX001 (ip), vehicle: carboxymethylcellulose (CMC) 108 % of control | dose: 150.0 mg/kg/injection, schedule: Q01DX001 (ip), vehicle: carboxymethylcellulose (CMC) 109 % of control

CCOC(=O)C(C)NC(=O)C(C)NC(=O)OCc1ccccc1 (stereo unspecified)
inactive: dose: 100.0 mg/kg/injection, schedule: Q01DX009 (ip), vehicle: gum acacia 101 % of control | dose: 100.0 mg/kg/injection, schedule: Q04DX003 (ip), vehicle: gum acacia 103 % of control | dose: 200.0 mg/kg/injection, schedule: Q01DX009 (ip), vehicle: gum acacia 93 % of control | dose: 200.0 mg/kg/injection, schedule: Q04DX003 (ip), vehicle: gum acacia 101 % of control | dose: 400.0 mg/kg/injection, schedule: Q01DX009 (ip), vehicle: gum acacia 87 % of control | dose: 400.0 mg/kg/injection, schedule: Q04DX003 (ip), vehicle: gum acacia 92 % of control

COC(C(=O)O)c1cccs1 (stereo unspecified)
inactive: [10] 91 % of control | [11] 86 % of control | [12] 100 % of control

CNC(=O)NCCN(C)c1ccccc1
inactive: dose: 100.0 mg/kg/injection, schedule: Q04DX002 (ip), vehicle: Klucel (hydroxypropylcellulose) (HPC) 92 % of control | dose: 200.0 mg/kg/injection, schedule: Q04DX002 (ip), vehicle: Klucel (hydroxypropylcellulose) (HPC) 110 % of control | dose: 400.0 mg/kg/injection, schedule: Q04DX002 (ip), vehicle: Klucel (hydroxypropylcellulose) (HPC) 106 % of control

C=C(Cl)CSC(=S)N(CC)CC
inactive: dose: 50.0 mg/kg/injection, schedule: Q01DX009 (ip), vehicle: saline sonified 94 % of control | dose: 100.0 mg/kg/injection, schedule: Q01DX009 (ip), vehicle: saline sonified 94 % of control | [2] 105 % of control | dose: 200.0 mg/kg/injection, schedule: Q01DX009 (ip), vehicle: saline sonified 105 % of control | [4] 102 % of control

Cc1ccc2nc(C)ccc2c1
inactive: [13] 101 % of control | [14] 109 % of control | [15] 107 % of control
